From patent US20250127913A1, “BIFUNCTIONAL FOLATE RECEPTOR BINDING COMPOUNDS” (LYCIA THERAPEUTICS, INC., priority 2021, published 2025)
Read-outs that look alike come from different tables or passages of the source.

Tests used:
FOLR2 = FOLR2 (Homo sapiens (Human), UniProt P14207); experiment: SPR binding kinetics of compounds to folate receptor (FOLR2 immobilized on CM5 chip)
Description: A Biacore 8K+ was used to measure the association and dissociation rates of example compounds to FOLR2 (Acro Biosystems, Cat: F02-H5223-100 μg). Briefly, FOLR2 was reconstituted according to the manufacture's instructions to 200 μg/mL. Both the active and reference surfaces of a Cytiva CM5 Series S Sensor Chip were activated with a 1:1 mixture of 400 mM EDC and 100 mM NHS for 420 s at 10 μL/min. 25 μg/mL FOLR2 diluted in Sodium Acetate pH 5.5 was injected on the active channel (Flow Cell 2) for 420 s at 10p/min. Both the reference and active surfaces were then capped with 1M ethanolamine, pH 8.5 for 420 s, achieving an immobilization level of ˜4200 RU. Example compounds were serially diluted 1:1 in running buffer (10 mM HEPES, 150 mM NaCl, 0.05% T20, pH 7.5, 2% DMSO) from 100 nM to 3.125 nM and flowed over the active and reference surfaces for 120 s, and then allowed to dissociate in running buffer for 600 s, at 30 uL/min. The FOLR2 immobilized active surface and the reference surface were regenerated with a 30 s pulse of Sodium Acetate pH 5.5 at 30 μL/min. Sensorgrams were solvent corrected, double-referenced, and the data fitted and analyzed in Biacore Insight Evaluation Software Version 3.0.11.15423.

THP-1 cells = experiment: Compound mediated uptake of TNFα-pHrodo in THP-1 cells (flow cytometry); type: cell-based; design: key to Uptake in THP1 cells (run) 2 / Uptake in THP1 cells (run) 3 / Uptake in THP1 cells (run) 4: + = ΔMFI less than that of I-17; ++ = ΔMFI ≈ to that of I-17; +++ = ΔMFI greater than that of I-17; conditions: ΔMFI compared with I-17, uptake at 10 μM
Description: THP-1 cells, a monocytic leukemia cell line that endogenously express folate receptor beta, were used as a model system to measure example compound stimulated uptake of in-house produced TNFα conjugated to the pH sensitive fluorescent dye pHrodo green (ThermoFisher Scientific #P35369).
THP-1 cells were maintained in RPMI (Gibco #61870143) with 10% v/v FBS (VWR #89510-188) with 2 mM L-alanyl-L-glutamine dipeptide, 100 units/ml penicillin and 100 μg/ml streptomycin (Gibco #15140148). Cells were pelleted, resuspended in folate-free RPMI (Gibco #27016021) and seeded at 50,000 cells per well of a 96 well plate. Example compound was added to each well as a log 2 dilution series ranging from 20 μM to 125 nM final concentration. Cells were incubated for 24 hrs and washed/resuspended in phosphate buffered saline (pH 7.4) with 1% w/v BSA. Uptake was measured using a Novocyte Advanteon Flow Cytometer (Agilent Technologies) with the […] and FITC detection configuration.

TNFα trimer = TNFα trimer (Homo sapiens, UniProt P01375); experiment: SPR binding kinetics of compounds to TNFα trimer; conditions: for Kd: class symbols; for koff: read-out: kd
Description: Streptavidin 100 μg/mL Streptavidin (Invitrogen Cat #: 434302) diluted in 10 mM sodium acetate, pH 4.5) was immobilized to both the reference and active surfaces as described in Example 51. The surfaces were conditioned with three injections of running Buffer (10 mM HEPES, 150 mMNaCl, 0.05% T20, pH 7.5, 2% DMSO) at a flow rate of 10 μL/min, Contact time: 60 s. Flow rate: 10 μL/min. The active surface was treated with biotinylated linked TNFα trimer 20 μg/mL diluted in running buffer at a flow rate of 5 μL/min contact time: 600 s, yielding a final response of ˜3000 RU. Example compounds were then serially diluted 1:1 in running buffer (10 mM HEPES, 150 mM NaCl, 0.05% T20, pH 7.5, 2% DMSO) from 30 uM to 937.5 nM and flowed over the active and reference surfaces from lowest concentration to greatest concentration in the single-cycle kinetics format, and then allowed to dissociate in running buffer for 7200 s, at 30 μL/min. Sensorgrams were solvent corrected, double-referenced, and the data fitted and analyzed in Biacore Insight Evaluation Software Version 3.0.11.15423.

FOLR2, sequence (P14207 17-255): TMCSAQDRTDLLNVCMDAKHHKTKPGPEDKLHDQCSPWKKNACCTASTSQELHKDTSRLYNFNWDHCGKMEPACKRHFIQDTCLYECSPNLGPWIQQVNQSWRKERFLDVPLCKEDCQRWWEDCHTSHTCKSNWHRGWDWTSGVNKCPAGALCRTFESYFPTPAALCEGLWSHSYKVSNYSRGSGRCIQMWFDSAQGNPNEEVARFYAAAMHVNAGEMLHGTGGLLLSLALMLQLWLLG
TNFα trimer, sequence (P01375 77-233 limits assumed): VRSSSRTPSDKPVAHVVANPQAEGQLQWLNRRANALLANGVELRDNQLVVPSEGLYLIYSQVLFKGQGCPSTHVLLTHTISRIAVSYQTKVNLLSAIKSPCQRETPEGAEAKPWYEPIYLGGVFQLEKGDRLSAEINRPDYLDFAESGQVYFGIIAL

Structure (SMILES)	Kd (FOLR2)	Uptake in THP1 cells (run) 2 (THP-1 cells)	Uptake in THP1 cells (run) 3 (THP-1 cells)	Uptake in THP1 cells (run) 4 (THP-1 cells)	Kd (TNFα trimer)	koff (TNFα trimer; SPR single cycle kinetics, TNFalpha trimer immobilized)	koff (TNFα trimer)
Cc1nc2ccc(-c3cnn(CCCCCCn4cc(COCCOCCOCCOCCNC(=O)CC[C@H](NC(=O)c5ccc(NCc6cnc7nc(N)nc(O)c7n6)cc5)C(=O)O)nn4)c3)cn2c1Cc1cc(Cl)ccc1Cl [Compound I-26, (S)-18-(4-(((2-amino-4-hydroxypteridin-6-yl)methyl)amino)benzamido)-1-(1-(6-(4-(3-(2,5-dichlorobenzyl)-2-methylimidazo[1,2-a]pyridin-6-yl)-1H-pyrazol-1-yl)hexyl)-1H-1,2,3-triazol-4-yl)-15-oxo-2,5,8,11-tetraoxa-14-azanonadecan-19-oic acid]	0.2 nM	+++	+	+	< 5000 nM		
Cc1nc2cc(F)c(-c3cnc(OCCCCCn4cc(COCCOCCOCCOCCNC(=O)CC[C@H](NC(=O)c5ccc(NCc6cnc7nc(N)nc(O)c7n6)cc5)C(=O)O)nn4)nc3)nc2c(N[C@H](C)c2cc(C#N)ccc2F)c1Cl [Compound I-17, (S)-18-(4-(((2-amino-4-hydroxypteridin-6-yl)methyl)amino)benzamido)-1-(1-(5-((5-(7-chloro-8-((I-1-(5-cyano-2-fluorophenyl)ethyl)amino)-3-fluoro-6-methyl-1,5-naphthyridin-2-yl)pyrimidin-2-yl)oxy)pentyl)-1H-1,2,3-triazol-4-yl)-15-oxo-2,5,8,11-tetraoxa-14-azanonadecan-19-oic acid]		++	++	+++	< 1000 nM		
Nc1nc(O)c2nc(CNc3ccc(C(=O)N[C@@H](CCC(=O)NCCOCCOCCOCCOCc4cn(CCCCCOc5ccc(-c6ccc7nc(COc8cccc(N9CCCC9=O)c8)n(Cc8ccccc8OC(F)F)c7c6)cn5)nn4)C(=O)O)cc3)cnc2n1 [Compound I-25, (S)-18-(4-(((2-amino-4-hydroxypteridin-6-yl)methyl)amino)benzamido)-1-(1-(5-((5-(1-(2-(difluoromethoxy)benzyl)-2-((3-(2-oxopyrrolidin-1-yl)phenoxy)methyl)-1H-benzo[d]imidazol-6-yl)pyridin-2-yl)oxy)pentyl)-1H-1,2,3-triazol-4-yl)-15-oxo-2,5,8,11-tetraoxa-14-azanonadecan-19-oic acid]	0.5 nM	+	+++	++	< 100 nM	3.65e-06 s⁻¹	
Cc1nc2ccc(-c3cnc(OCCOCCn4cc(COCCOCCOCCOCCNC(=O)CC[C@H](NC(=O)c5ccc(NCc6cnc7nc(N)nc(O)c7n6)cc5)C(=O)O)nn4)nc3)cc2n1Cc1ccccc1OC(F)F [Compound I-24, (S)-18-(4-(((2-amino-4-hydroxypteridin-6-yl)methyl)amino)benzamido)-1-(1-(2-(2-((5-(1-(2-(difluoromethoxy)benzyl)-2-methyl-1H-benzo[d]imidazol-6-yl)pyrimidin-2-yl)oxy)ethoxy)ethyl)-1H-1,2,3-triazol-4-yl)-15-oxo-2,5,8,11-tetraoxa-14-azanonadecan-19-oic acid]	0.4 nM		+	+	< 5000 nM		
Cc1nc2cc(F)c(-c3cnc(OCCCCCn4cc(COCCOCCNC(=O)CC[C@H](NC(=O)c5ccc(NCc6cnc7nc(N)nc(O)c7n6)cc5)C(=O)O)nn4)nc3)nc2c(N[C@H](C)c2cc(C#N)ccc2F)c1Cl [Compound I-16, N2-(4-(((2-amino-4-hydroxypteridin-6-yl)methyl)amino)benzoyl)-N5-(2-(2-((1-(5-((5-(7-chloro-8-((I-1-(5-cyano-2-fluorophenyl)ethyl)amino)-3-fluoro-6-methyl-1,5-naphthyridin-2-yl)pyrimidin-2-yl)oxy)pentyl)-1H-1,2,3-triazol-4-yl)methoxy)ethoxy)ethyl)-L-glutamine]	0.3 nM	+++	+++	++	< 100 nM		5.81e-05 s⁻¹
Cc1nc2cc(F)c(-c3cnc(OCCCCCNC(=O)CC[C@H](NC(=O)c4ccc(NCc5cnc6nc(N)nc(O)c6n5)cc4)C(=O)O)nc3)nc2c(N[C@H](C)c2cc(C#N)ccc2F)c1Cl [Compound I-13, N2-(4-(((2-amino-4-hydroxypteridin-6-yl)methyl)amino)benzoyl)-N5-(5-((5-(7-chloro-8-(((R)-1-(5-cyano-2-fluorophenyl)ethyl)amino)-3-fluoro-6-methyl-1,5-naphthyridin-2-yl)pyrimidin-2-yl)oxy)pentyl)-L-glutamine]		+	++	++	< 100 nM		
